Reference: the supplement of paper PMC9663587

Compound: T1, CCOc1cc2ncc(C#N)c(Nc3ccc(OCc4ccccn4)c(Cl)c3)c2cc1NC(=O)/C=C/CN(C)C [Neratinib/HKI272]
Test: increase in dead-cell fraction, 72 h; higher = more death;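 further: breast cancer cell lines in 384-well plates, stained with Hoechst plus LIVE/DEAD far red dye and imaged, cells above an LDR intensity threshold counted dead, Hoechst-negative corpses included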
Settings: 0.0003162 µM

Cell Line | increase in dead-cell fraction
BT474 | 0.0014
BT549 | 0.0052
CAL51 | 0.0033
CAL120 | -0.0012
CAL851 | -0.0016

Same assay, conditions: 0.001 µM

Cell Line | increase in dead-cell fraction
BT474 | 0.0075
BT549 | 0.0037
CAL51 | -0.0017
CAL120 | -0.0046
CAL851 | 0.0027

Same assay, conditions: 0.003162 µM

Cell Line | increase in dead-cell fraction
BT474 | 0.0456
BT549 | 0.0077
CAL51 | 0.0074
CAL120 | -0.0039
CAL851 | 0.006

Same assay, conditions: 0.01 µM

Cell Line | increase in dead-cell fraction
BT474 | 0.235
BT549 | -0.001
CAL51 | 0.0041
CAL120 | -0.0045
CAL851 | 0.0409

Same assay, conditions: 0.03162 µM

Cell Line | increase in dead-cell fraction
BT474 | 0.359
BT549 | 0.0074
CAL51 | 0.0026
CAL120 | 0.0031
CAL851 | 0.113

Same assay, conditions: 0.1 µM

Cell Line | increase in dead-cell fraction
BT474 | 0.369
BT549 | -0.0081
CAL51 | 0.0003
CAL120 | -0.0024
CAL851 | 0.199

Same assay, conditions: 0.3162 µM

Cell Line | increase in dead-cell fraction
BT474 | 0.38
BT549 | 0.0066
CAL51 | -0.0046
CAL120 | 0.0027
CAL851 | 0.29

Same assay, conditions: 1 µM

Cell Line | increase in dead-cell fraction
BT474 | 0.438
BT549 | 0.0035
CAL51 | -0.0094
CAL120 | 0.0247
CAL851 | 0.344

Same assay, conditions: 3.162 µM

Cell Line | increase in dead-cell fraction
BT474 | 0.471
BT549 | 0.102
CAL51 | 0.0911
CAL120 | 0.571
CAL851 | 0.542

Compound: CC(=O)c1c(C)c2cnc(Nc3ccc(N4CCNCC4)cn3)nc2n(C2CCCC2)c1=O
Test: as above
Settings: 0.0003162 µM

Cell Line | increase in dead-cell fraction
BT474 | -0.0048
BT549 | 0.003
CAL51 | -0.0042
CAL120 | -0.0011
CAL851 | 0.0002

Same assay, conditions: 0.001 µM

Cell Line | increase in dead-cell fraction
BT474 | -0.0003
BT549 | 0.0092
CAL51 | -0.0013
CAL120 | -0.0036
CAL851 | 0.0074

Same assay, conditions: 0.003162 µM

Cell Line | increase in dead-cell fraction
BT474 | -0.0027
BT549 | 0.0021
CAL51 | -0.0116
CAL120 | 0.0022
CAL851 | -0.0015

Same assay, conditions: 0.01 µM

Cell Line | increase in dead-cell fraction
BT474 | 0.0006
BT549 | 0.0028
CAL51 | -0.0114
CAL120 | -0.0072
CAL851 | -0.0049

Same assay, conditions: 0.03162 µM

Cell Line | increase in dead-cell fraction
BT474 | 0.0074
BT549 | -0.0008
CAL51 | -0.0305
CAL120 | 0.0004
CAL851 | -0.0041

Same assay, conditions: 0.1 µM

Cell Line | increase in dead-cell fraction
BT474 | 0.0103
BT549 | 0.0025
CAL51 | -0.0374
CAL120 | 0.0047
CAL851 | 0.0052

Same assay, conditions: 0.3162 µM

Cell Line | increase in dead-cell fraction
BT474 | 0.0169
BT549 | -0.0015
CAL51 | -0.0371
CAL120 | 0.0049
CAL851 | -0.004

Same assay, conditions: 1 µM

Cell Line | increase in dead-cell fraction
BT474 | 0.0196
BT549 | -0.0066
CAL51 | -0.036
CAL120 | 0.0051
CAL851 | -0.0071

Same assay, conditions: 3.162 µM

Cell Line | increase in dead-cell fraction
BT474 | 0.0256
BT549 | -0.0162
CAL51 | -0.029
CAL120 | 0.0096
CAL851 | -0.006

Compound: CCN1CCN(Cc2ccc(Nc3ncc(F)c(-c4cc(F)c5nc(C)n(C(C)C)c5c4)n3)nc2)CC1
Test: as above
Settings: 0.001 µM

Cell Line | increase in dead-cell fraction
BT474 | -0.005
BT549 | -0.0017
CAL51 | -0.009
CAL120 | -0.0028
CAL851 | -0.0049

Same assay, conditions: 0.003162 µM

Cell Line | increase in dead-cell fraction
BT474 | -0.0017
BT549 | -0.0033
CAL51 | -0.0216
CAL120 | -0.0021
CAL851 | -0.0095

Same assay, conditions: 0.01 µM

Cell Line | increase in dead-cell fraction
BT474 | 0.0057
BT549 | 0.0079
CAL51 | -0.032
CAL120 | 0.0053
CAL851 | -0.0073

Same assay, conditions: 0.03162 µM

Cell Line | increase in dead-cell fraction
BT474 | 0.0071
BT549 | -0.0016
CAL51 | -0.0343
CAL120 | 0.0134
CAL851 | -0.0136

Same assay, conditions: 0.1 µM

Cell Line | increase in dead-cell fraction
BT474 | 0.0213
BT549 | 0.0009
CAL51 | -0.0329
CAL120 | 0.0398
CAL851 | -0.0173

Same assay, conditions: 0.3162 µM

Cell Line | increase in dead-cell fraction
BT474 | 0.01
BT549 | -0.01
CAL51 | -0.0295
CAL120 | 0.0603
CAL851 | -0.0161

Same assay, conditions: 1 µM

Cell Line | increase in dead-cell fraction
BT474 | 0.0104
BT549 | 0.0019
CAL51 | -0.0018
CAL120 | 0.146
CAL851 | 0.0209

Same assay, conditions: 3.162 µM

Cell Line | increase in dead-cell fraction
BT474 | 0.0016
BT549 | 0.024
CAL51 | 0.239
CAL120 | 0.248
CAL851 | 0.211

Same assay, conditions: 10 µM

Cell Line | increase in dead-cell fraction
BT474 | 0.0194
BT549 | 0.139
CAL51 | 0.727
CAL120 | 0.249
CAL851 | 0.266

Compound: CCc1cnn2c(NCc3ccc[n+]([O-])c3)cc(N3CCCC[C@H]3CCO)nc12
Test: as above
Settings: 0.0001 µM

Cell Line | increase in dead-cell fraction
BT474 | -0.0025
BT549 | -0.0017
CAL51 | -0.0015
CAL120 | -0.0093
CAL851 | -0.007

Same assay, conditions: 0.0003162 µM

Cell Line | increase in dead-cell fraction
BT474 | -0.0015
BT549 | -0.0119
CAL51 | -0.0015
CAL120 | -0.0043
CAL851 | -0.005

Same assay, conditions: 0.001 µM

Cell Line | increase in dead-cell fraction
BT474 | -0.0013
BT549 | 0.0095
CAL51 | 0.0029
CAL120 | -0.0016
CAL851 | 0.003

Same assay, conditions: 0.003162 µM

Cell Line | increase in dead-cell fraction
BT474 | -0.002
BT549 | 0.0067
CAL51 | 0.0026
CAL120 | 0.0101
CAL851 | 0.0409

Same assay, conditions: 0.01 µM

Cell Line | increase in dead-cell fraction
BT474 | 0.0053
BT549 | 0.0717
CAL51 | -0.0001
CAL120 | 0.132
CAL851 | 0.2

Same assay, conditions: 0.03162 µM

Cell Line | increase in dead-cell fraction
BT474 | 0.207
BT549 | 0.309
CAL51 | 0.437
CAL120 | 0.241
CAL851 | 0.147

Same assay, conditions: 0.1 µM

Cell Line | increase in dead-cell fraction
BT474 | 0.246
BT549 | 0.338
CAL51 | 0.584
CAL120 | 0.233
CAL851 | 0.205

Same assay, conditions: 0.3162 µM

Cell Line | increase in dead-cell fraction
BT474 | 0.265
BT549 | 0.295
CAL51 | 0.58
CAL120 | 0.25
CAL851 | 0.22

Same assay, conditions: 1 µM

Cell Line | increase in dead-cell fraction
BT474 | 0.249
BT549 | 0.346
CAL51 | 0.532
CAL120 | 0.208
CAL851 | 0.217

Compound: CN(C)C/C=C/C(=O)Nc1ccc(C(=O)Nc2cccc(Nc3ncc(Cl)c(-c4c[nH]c5ccccc45)n3)c2)cc1 [THZ1]
Test: GR value, 72 h; higher = faster growth (1 = untreated, <0 = killing);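 further: breast cancer and non-malignant breast epithelial lines, nine half-log doses, viable cells counted by Hoechst and LIVE/DEAD dye imaging versus time-zero plates and DMSO controls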
Settings: 0.0001 µM

Cell Line | GR value
BT474 | 1 GR
BT549 | 1.06 GR
CAL51 | 1.05 GR
CAL120 | 1.02 GR
CAL851 | 1.01 GR

Same assay, conditions: 0.0003162 µM

Cell Line | GR value
BT474 | 0.971 GR
BT549 | 1.01 GR
CAL51 | 0.971 GR
CAL120 | 0.971 GR
CAL851 | 0.917 GR

Same assay, conditions: 0.001 µM

Cell Line | GR value
BT474 | 0.687 GR
BT549 | 1.02 GR
CAL51 | 0.953 GR
CAL120 | 0.979 GR
CAL851 | 0.835 GR

Same assay, conditions: 0.003162 µM

Cell Line | GR value
BT474 | 0.659 GR
BT549 | 0.979 GR
CAL51 | 0.953 GR
CAL120 | 0.92 GR
CAL851 | 0.727 GR

Same assay, conditions: 0.01 µM

Cell Line | GR value
BT474 | 0.571 GR
BT549 | 0.909 GR
CAL51 | 0.938 GR
CAL120 | 0.938 GR
CAL851 | 0.6 GR

Same assay, conditions: 0.03162 µM

Cell Line | GR value
BT474 | 0.441 GR
BT549 | 0.69 GR
CAL51 | 0.882 GR
CAL120 | 0.656 GR
CAL851 | 0.145 GR

Same assay, conditions: 0.1 µM

Cell Line | GR value
BT474 | -0.627 GR
BT549 | 0.16 GR
CAL51 | 0.871 GR
CAL120 | 0.324 GR
CAL851 | -0.146 GR

Same assay, conditions: 0.3162 µM

Cell Line | GR value
BT474 | -0.683 GR
BT549 | -0.171 GR
CAL51 | 0.601 GR
CAL120 | 0.154 GR
CAL851 | -0.225 GR

Same assay, conditions: 1 µM

Cell Line | GR value
BT474 | -0.617 GR
BT549 | -0.317 GR
CAL51 | 0.0924 GR
CAL120 | -0.159 GR
CAL851 | -0.549 GR

Compound: T1, Neratinib/HKI272
Test: as above
Settings: 0.0003162 µM

Cell Line | GR value
BT474 | 0.989 GR
BT549 | 1.02 GR
CAL51 | 0.983 GR
CAL120 | 0.996 GR
CAL851 | 1.04 GR

Same assay, conditions: 0.001 µM

Cell Line | GR value
BT474 | 0.784 GR
BT549 | 1.03 GR
CAL51 | 1 GR
CAL120 | 1.03 GR
CAL851 | 0.993 GR

Same assay, conditions: 0.003162 µM

Cell Line | GR value
BT474 | -0.125 GR
BT549 | 1 GR
CAL51 | 0.938 GR
CAL120 | 0.97 GR
CAL851 | 0.881 GR

Same assay, conditions: 0.01 µM

Cell Line | GR value
BT474 | -0.734 GR
BT549 | 1.04 GR
CAL51 | 1.01 GR
CAL120 | 0.973 GR
CAL851 | 0.747 GR

Same assay, conditions: 0.03162 µM

Cell Line | GR value
BT474 | -0.825 GR
BT549 | 1.02 GR
CAL51 | 1 GR
CAL120 | 0.999 GR
CAL851 | 0.435 GR

Same assay, conditions: 0.1 µM

Cell Line | GR value
BT474 | -0.86 GR
BT549 | 0.969 GR
CAL51 | 0.975 GR
CAL120 | 0.876 GR
CAL851 | 0.226 GR

Same assay, conditions: 0.3162 µM

Cell Line | GR value
BT474 | -0.874 GR
BT549 | 0.904 GR
CAL51 | 0.94 GR
CAL120 | 0.618 GR
CAL851 | 0.109 GR

Same assay, conditions: 1 µM

Cell Line | GR value
BT474 | -0.895 GR
BT549 | 0.793 GR
CAL51 | 0.833 GR
CAL120 | 0.355 GR
CAL851 | -0.0501 GR

Same assay, conditions: 3.162 µM

Cell Line | GR value
BT474 | -0.922 GR
BT549 | 0.196 GR
CAL51 | 0.293 GR
CAL120 | -0.262 GR
CAL851 | -0.322 GR
